Reference: paper PMC9354954, “Assessing Bioavailability and Bioactivity of 4-Hydroxythiazolidine-2-Thiones, Newly Discovered Glucosinolate Degradation Products Formed During Domestic Boiling of Cabbage” (Frontiers in Nutrition, 2022)

Tests used:
[1] = Stability in an in vitro stomach model; type: in vitro ADME; conditions: 100 μM, 2 h, 37°C, stomach model solution pH 2
Experimental: To investigate the stability of the HTTs in the process of nutrient absorption, allyl HTT and 4-MSOB HTT were incubated (prepared as triplicates) at a concentration of 100 μM in an in vitro stomach model solution containing 2.9 g/L NaCl, 0.7 g/L KCl, 0.27 g/L KH2PO4, 0.78 g/L pepsin, and 3 g/L mucin-type II and adjusted with 1 M HCl to pH 2.0 based on literature ([25]). To simulate the stomach, samples were shaken slightly for 2 h at 200 rpm in a thermoshaker (MHR 23, Hettich Benelux B.V, Netherlands) at 37°C. Afterward, 500 μL of MeCN were added to 500 μL of stomach model solution to precipitate proteins and salts. The suspension was centrifuged for 3 min at 4,000 g and the supernatant was analyzed by HPLC-UV at a wavelength of 274 ± 2 nm. The stability of allyl HTT and 4-MSOB HTT in the stomach model was determined by the recovery compared to incubation in pure water at room temperature. […]

[2] = Determination of log P (octanol/water); type: physicochemical; conditions: room temperature; for concentration ratio in the octanol phase compared to the water phase: 18 h, triplicates; for logP at 18 h: octanol/water
Experimental: For the determination of log P of the HTTs, two solutions were used: water saturated with octanol and octanol saturated with water. […] The spiked octanol-water mixture was vortexed for 30 s and the mixture was incubated for 18 h at room temperature to obtain analyte equilibrium distribution. For determination of the log P-value, 50 μL of the water phase was taken and measured by HPLC-UV at 274 ± 2 nm with HPLC method 2 (see Section Stability of 4-Hydroxythiazolidine-2-Thiones in a Stomach Model) with an injection volume of 10 μL. The analyte concentration in the water phase was determined by using external calibration. The relative analyte content in the water phase was calculated by using the following equation:
analyte content in water phase in % =measured concentration in water phase of the mixture/2 · concentration in pure water reference ·100%
The relative analyte content in the octanol phase was calculated at 100% minus the relative analyte concentration in the water phase. The reported results are the mean ± SD of the three determined log P-values for the three repetitions.

[3] = Estimation of permeability coefficients from plot of Levin data using measured partition coefficients; conditions: for Papp: not told, estimated from plot of Levin data (ref 32) using measured octanol/water partition coefficients, read-out: estimated permeability coefficient
From the text: The log P-value is positive for compounds which are better soluble in the octanol phase, and is negative for compounds which are better soluble in the aqueous phase. To assess if the different uptake behavior of the two HTTs is based on their different polarity, the octanol/water partition coefficients of several compounds were plotted against their permeability coefficients, based on a previous report by Levin ([32]) (Supplementary Figure S5). The obtained plot was used to estimate the permeability coefficients of the two HTTs with 2 × 10^−4 cm/s for allyl HTT and 1.1 × 10^−5 cm/s for 4-MSOB HTT using the measured octanol/water partition coefficients of both compounds. The ratio of both estimated permeability coefficients was 18 and fitted very well to the measured ratios of 27-fold and 10-fold for the higher uptake of allyl HTT compared to 4-MSOB HTT in the experiments with HepG2 and Caco-2 cells. Therefore, the uptake of allyl HTT and 4-MSOB HTT in the in vitro assays can be primarily explained by simple passive diffusion through the cell membrane. Additionally, the fact that in both intestinal model experiments (transport of the analyte from the upper to the lower compartment, as well as from the lower to an upper compartment), the transport velocity was similar, and an equilibrium concentration between both compartments was reached, supporting the hypothesis of passive diffusion without the need of special transporters.
Figure S5: Plot of data reported by Levin (1980) to describe the correlation between the octanol/water partition coefficients of several compounds and their permeability coefficients. The red line and thin black lines were draw by the author and used to estimate the permeability coefficients of 3-allyl-4-hydroxythiazolidine-2-thione (allyl HTT) and 4-hydroxy-3-(4-(methylsulfinyl)butyl) thiazolidine-2-thione (4-MSOB HTT) using their measured octanol-water partition coefficients (black lines).

HepG2 cells [4] = assay: Cytotoxicity, neutral red uptake assay; type: cell-based, human; conditions: up to 100 μM, 24 h
Experimental: (§1) To determine the cytotoxicity of allyl HTT and 4-MSOB HTT, HepG2 and Caco-2 cells were seeded in a 96-well TC-plate (standard F, sterile, from Sarsted, Nümbrecht, Germany) using a seeding density of 20,000 cells/well. After 24 h, the medium was exchanged to 200 μL pure medium or 200 μL medium containing allyl HTT or 4-MSOB HTT with concentrations in the range of 0.1–100 μM. The cells were treated for 24 h under cell culture conditions (prepared for three biological replicates, every 3 technical replicates). Cell viability was determined using the MTT assay and the neutral red uptake assay based on Schröter et al. ([27]). In the case of MTT assay, after 24 h of HTT treatment, 20 μL of MTT solution (75 mg MTT in 15 mL PBS) were added, and cells were incubated for 60 min under cell culture conditions. Afterward, the supernatant was removed and 100 μL of lysis buffer (5% formic acid in isopropanol) was added and the plate was shaken for 10 min at 300 rpm before measuring the absorption at 550 ± 5 nm (reference 690 ± 5 nm) by a Tecan i-control Infinite M200 PRO plate reader (Crailsheim, Germany). In the case of the neutral red uptake assay, the supernatant was removed after 24 h HTT treatment, and 100 μL neutral red solution (40 mg neutral red in 10 mL PBS, freshly diluted 1:100 with medium and incubated for 24 h under cell culture conditions) was added. After incubation of neutral red solution for 2 h under cell culture conditions, the supernatant was removed, and cells were washed with 150 μL of PBS. After removing PBS, 150 μL desorb solution (49.5% water/49.5% ethanol/1% acetic acid) was added and the plate was shaken for 10 min at 300 rpm before measuring the absorption at 540 ± 5 nm by Tecan i-control Infinite M200 PRO plate reader. The mean ± SD is used for presenting the results of three technical replicates for each data point of the three biological replicates.

Caco-2 cells = assay: Cytotoxicity, MTT assay; type: cell-based, human; conditions: Caco-2, MTT assay, up to 100 μM, 24 h
Experimental: as §1

HepG2 cells [5] = assay: Cytotoxicity, MTT assay; type: cell-based, human; conditions: up to 100 μM, 24 h
Experimental: as §1

SMILES	recovery compared to the pure water control reference [1]	concentration ratio in the octanol phase compared to the water phase [2]	logP at 18 h [2]	Papp [3]	effect on cell viability compared to untreated cells (HepG2 cells [4])	effect on cell viability compared to untreated cells (Caco-2 cells)	effect on cell viability compared to untreated cells (HepG2 cells [5])	ratio of both estimated permeability coefficients ([3]; allyl HTT vs 4-MSOB HTT)
C[S+]([O-])CCCCN1C(=S)SCC1O (stereo not drawn) [4-MSOB HTT, 4-hydroxy-3-(4-(methylsulfinyl)butyl)thiazolidine-2-thione]	98 ± 3%	0.45 ± 0.04	-0.35 ± 0.04	11 ×10⁻⁶ cm/s	did not show any effect on cell viability	did not show any effect on cell viability	did not show any effect on cell viability	
C=CCN1C(=S)SCC1O (stereo not drawn) [allyl HTT, 3-allyl-4-hydroxythiazolidine-2-thione]	98 ± 2%	8.1 ± 0.4	0.91 ± 0.02	200 ×10⁻⁶ cm/s	did not show any effect on cell viability	did not show any effect on cell viability	did not show any effect on cell viability	18
